Measured values reported in patent US20110268818A1, “NGAL-BINDING SIDEROPHORES AND USE THEREOF TO TREAT IRON DEFICIENCY AND IRON OVERLOAD” (priority 2008, published 2011).
Structures can show the parent of a compound that is named as a salt.

Legend:
[1] = Siderophore:iron binding assay (paper chromatography); conditions: for Fe: Chromatography: 55Fe mobilised by compound on paper chromatogram developed in water, Yes/No
Excerpt: Siderophore:Iron Binding Assay. To test whether candidates bound iron directly, candidates (1 nmole) were mixed with ^55Fe (1 pmole), and then separated bound from free ^55Fe using paper chromatography developed in water.
Paper chromatography: The Fe-Siderophore Binding Assay: The concept underlying the Ngal-siderophore-Fe binding assay is that the urinary molecule provides an iron binding siderophore, and that the Ngal protein provides the carrier which retains the siderophore:Fe on the 10 KDa filter. […] To directly test this idea, we will mix 55Fe with HMDB compounds and then separate bound from free 55Fe by using paper chromatography. […] The assay also provides an independent means to follow the purification of the urinary siderophore. Using this assay, we can measure the specific activity of the fractions to identify the peak activity, as well as to compare the urinary fraction with enterochelin to establish relative units of activity.

[2] = target: T1, NGAL (Homo sapiens, UniProt P80188); assay: NGAL:siderophore:iron binding assay (retention on 10 kDa filter); conditions: for NGAL-siderophore-Fe binding activity (in words): iron retention by NGAL on filter
T1 construct: made in house; host or cells: E. coli BL-21
Protocol: NGAL:Siderophore:Iron Binding Assays. […] After 60 minutes, the mixture was washed 3 times (YM-10) or alternatively gel filtered (PD-10, GE Biosciences). Ent loaded NGAL served as a positive control. Ferric citrate (1 mM) or Ent:iron (500 μM) served as competitors of ^55Fe binding.
After 60 minutes at room temperature, the mixture was then washed 3 times on a 10-kDa membrane (Amicon YM-10; Millipore Corp.). Ngal loaded with iron-free enterochelin (rather than apo-Ngal) served as a positive control for iron capture. Ferric citrate (1 mM) or iron-loaded enterochelin (siderophore:Fe, […]) was used as a competitor of 55Fe binding.

[3] = apoNGAL 10 μM, 55Fe, compound 10 μM, pH 7.4, washed on 10 kDa filter

T1 sequence (P80188 21-198): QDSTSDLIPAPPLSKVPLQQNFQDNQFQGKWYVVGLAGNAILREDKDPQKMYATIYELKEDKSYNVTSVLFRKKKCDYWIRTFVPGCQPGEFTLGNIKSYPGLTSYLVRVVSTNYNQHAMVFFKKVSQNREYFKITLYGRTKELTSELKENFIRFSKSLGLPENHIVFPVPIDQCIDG

Row | Compound | iron chelating activity by paper chromatography (in words) [1] | Fe: Chromatography [1] | NGAL: Chelator: Fe % Retention [2, 3] [%] | NGAL-siderophore-Fe binding activity (in words) [2] | NGAL: Chelator: Fe % Retention ([2]; pH 7.4) [%]
1 | NC(Cc1ccc(O)c(O)c1)C(=O)O (racemic) [3,4-Dihydroxy-DL-phenylalanine] | active | Yes | 12 |  | 
2 | Nc1c(O)cccc1C(=O)CC(N)C(=O)O (racemic) [3-Hydroxy-DL-kynurenine] | active | Yes | 3 |  | 
3 | O=C1CC(C(=O)O)NC(=O)N1 (racemic) [DL- Dihdroorotic acid] |  | No | 7 |  | 
4 | NCC(=O)c1ccc(O)c(O)c1 (racemic) [DL- Norepinephrine•HCl] |  | No | 5 |  | 
5 | O=C(O)CC(C(=O)O)C(O)C(=O)O (racemic) [Isocitric acid] |  | Yes |  |  | 
6 | CC(=O)NC(CC(=O)O)c1ccccc1 (racemic) [N-Acetyl-DL-Â- phenylalanine] |  | No | 5 |  | 
7 | COc1ccccc1OC [1,2-Dimethoxybenzene] |  | No | 3 |  | 
8 | COc1cccc(C(=O)O)c1OC [2,3 Dimethoxybenzoic acid] |  | No | 6 |  | 
9 | O=C(O)c1cccc(O)c1O [2,3- Dihydroxybenzoic acid] | active | Yes | 35 | active | 
10 | O=C(O)c1cccnc1C(=O)O [2,3-Pyridine-dicarboxylic acid] |  | No | 6 |  | 
11 | O=C(O)CNC(=O)c1ccco1 [2-Furoylglycine] |  | No | 6 |  | 
12 | O=C(O)c1ccc(O)c(O)c1 [3,4- Dihydroxybenzoic Acid] | active | Yes | 5 |  | 
13 | Nc1c(O)cccc1C(=O)O [3- Hydroxyanthranilic acid] |  | No | 10 |  | 
14 | Cc1ncc(CO)c(C(=O)O)c1O [4-Pyridoxic Acid] |  | No | 12 |  | 
15 | NCC(=O)CCC(=O)O [5-Aminolevulinic acid] |  | No | 3 |  | 
16 | O=C(O)Cc1c[nH]c2ccc(O)cc12 [5-Hydroxy-indoleacetic acid] |  |  | 7 |  | 
17 | NCCc1cc(O)c(O)c(O)c1 [5-Hydroxydopamine] |  | No | 10 |  | 
18 | N[C@@H](Cc1c[nH]c2ccc(O)cc12)C(=O)O [5-Hydroxytryptophan] |  | No | 4 |  | 
19 | NCCc1cc(O)c(O)cc1O [6-Hydroxydopamine] |  | No | 4 |  | 
20 | O=C(O[C@@H]1Cc2c(O)cc(O)cc2O[C@@H]1c1cc(O)c(O)c(O)c1)c1cc(O)c(O)c(O)c1 [(−) Epigallocatechin gallate] | active | Yes | 45 | active | 
21 | NC(=O)NC1NC(=O)NC1=O (stereo not shown) [Allantoin] |  | No | 7 |  | 
22 | Oc1cccc(O)c1O [Benzene 1,2,3 Trial (Pyrogallol)] |  | Yes | 73 | highest activities | 
23 | C=CC1=C(C)/C(=C/c2[nH]c(Cc3[nH]c(/C=C4\NC(=O)C(C)=C4C=C)c(C)c3CCC(=O)O)c(CCC(=O)O)c2C)NC1=O [Bilirubin] |  | No | 3 |  | 

Row | Compound | iron chelating activity by paper chromatography (in words) [1] | Fe: Chromatography [1] | NGAL: Chelator: Fe % Retention [2, 3] [%] | NGAL-siderophore-Fe binding activity (in words) [2] | NGAL: Chelator: Fe % Retention ([2]; pH 7.4) [%]
24 | C=CC1=C(C)C(/C=c2/[nH]/c(=C\c3[nH]c(/C=C4\NC(=O)C(C)=C4C=C)c(C)c3CCC(=O)O)c(CCC(=O)O)c2C)NC1=O (stereo not shown) [Biliverdin HCl] |  | No | 9 |  | 
25 | O=C(/C=C/c1ccc(O)c(O)c1)OCCc1ccccc1 [Caffeic acid phenethyl ester] |  | No | 8 |  | 
26 | O=C(O)/C=C/c1ccc(O)c(O)c1 [Caffeic acid] |  | No | 7 |  | 
27 | O=S1(=O)Oc2ccccc2O1 [Catechol cyclic sulfonate] |  | No | 6 |  | 
28 | O=C(/C=C/c1ccc(O)c(O)c1)O[C@@H]1C[C@](O)(C(=O)O)C[C@@H](O)[C@H]1O [Chlorogenic acid] |  |  | 6 |  | 
29 | O=C(O)/C=C(/CC(=O)O)C(=O)O [Cis-Aconitic acid] |  | No | 11 |  | 
30 | O=C([O-])CC(O)(CC(=O)[O-])C(=O)[O-].[Na+].[Na+].[Na+] [Citric acid sodium] | active | Yes | 6 |  | 
31 | N[C@@H](Cc1ccc(O)c(O)c1)C(=O)O [Dihydroxyphenyl alanine (L-DOPA)] | active | Yes | 10 |  | 
32 | O=c1oc2c(O)c(O)cc3c(=O)oc4c(O)c(O)cc1c4c23 [Ellagic acid] | active | Yes | 24 | active | 
33 | Cc1cc2nc3c(=O)[nH]c(=O)nc-3n(C[C@H](O)[C@H](O)[C@H](O)COP(=O)(O)OP(=O)(O)OC[C@H]3O[C@@H](n4cnc5c(N)ncnc54)[C@H](O)[C@@H]3O)c2cc1C [FAD] |  |  | 6 |  | 
34 | COc1cc(/C=C/C(=O)O)ccc1O [Ferulic acid] |  | No | 3 |  | 
35 | Nc1nc2[nH]cc(CNc3ccc(C(=O)N[C@@H](CCC(=O)O)C(=O)O)cc3)nc-2c(=O)n1 [Folic acid] |  | No | 3 |  | 
36 | O=C(O)c1cc(O)ccc1O [Gentistic Acid] |  | No | 6 |  | 
37 | COc1ccccc1O [Guaiacol] |  | No | 4 |  | 
38 | O=C(O)Cc1cc(O)ccc1O [Homogentisic acid] |  | No | 7 |  | 
39 | N[C@@H](Cc1ccccc1)C(=O)O [L-Phenylalanine] |  | No | 8 |  | 
40 | N[C@@H](Cc1c[nH]c2ccccc12)C(=O)O [L-Tryptophan] |  | No | 5 |  | 
41 | O=c1c(O)c(-c2cc(O)c(O)c(O)c2)oc2cc(O)cc(O)c12 [Myricetin] |  | No | 28 | active | 
42 | NC(=O)C1=CN([C@@H]2O[C@H](COP(=O)(O)OP(=O)(O)OC[C@H]3O[C@@H](n4cnc5c(N)ncnc54)[C@H](OP(=O)(O)O)[C@@H]3O)[C@@H](O)[C@H]2O)C=CC1 [NADPH] |  | Yes | 3 |  | 
43 | C=CC1=C(C)c2cc3[nH]c(cc4nc(cc5[nH]c(cc1n2)c(C)c5CCC(=O)O)C(CCC(=O)O)=C4C)c(C)c3C=C [Protoporphyrin IX] |  |  | 3 |  | 
44 | O=C(O)CCC(=O)O [Succinic acid] |  |  |  |  | 11
45 | O=c1cc[nH]c(=O)[nH]1 [Uracil] |  |  | 7 |  | 
46 | β-Nicotinamide adenine | active |  |  |  | 
